We go through 12 compounds from patent US6875760B2 (Novo Nordisk A/S, priority 1999, dated 2005).

Structures are written as SMILES.

For the assay, the target named is T1, cloned human glucagon receptor (Homo sapiens, UniProt P47871).
T1 construct: expressed in transfected cells; plasma membrane preparation
As to the kind of experiment: Glucagon Binding Assay (II). As to conditions: for IC50: plasma membranes of BHK cells expressing the receptor, read-out: Glu Bd Assay (II) IC50; for inhibition at 1 µM: screened at 1 μM, library compounds, read-out: displacement of the glucagon tracer when screened at 1 μM concentration in the glucagon binding assay II.

T1 sequence (P47871 26-477): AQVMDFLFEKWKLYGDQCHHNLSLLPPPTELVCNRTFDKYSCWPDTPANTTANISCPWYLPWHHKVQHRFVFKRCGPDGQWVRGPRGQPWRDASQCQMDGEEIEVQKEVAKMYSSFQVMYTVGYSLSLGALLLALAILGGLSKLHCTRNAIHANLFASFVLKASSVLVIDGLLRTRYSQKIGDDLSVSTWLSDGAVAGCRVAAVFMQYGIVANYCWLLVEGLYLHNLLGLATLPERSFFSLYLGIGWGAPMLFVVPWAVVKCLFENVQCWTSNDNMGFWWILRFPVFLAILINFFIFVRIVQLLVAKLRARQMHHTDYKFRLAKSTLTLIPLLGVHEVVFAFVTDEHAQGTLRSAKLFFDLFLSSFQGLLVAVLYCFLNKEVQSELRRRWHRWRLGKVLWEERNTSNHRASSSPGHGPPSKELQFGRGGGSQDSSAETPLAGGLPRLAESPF

For `CC(C)(C)C1CCC(N(Cc2ccc(C(=O)Nc3nn[nH]n3)cc2)C(=O)Nc2cc(Cl)cc(Cl)c2)CC1` (stereo not drawn) [Example 172, 4-[1-(4-tert-Butylcyclohexyl)-3-(3,5-dichlorophenyl)ureidomethyl]-N-(2H-tetrazol-5-yl)benzamide], the IC50 was determined as 7 nM.

Consider `CC(C)(C)C1CCC(N(Cc2ccc(C(=O)NCc3nn[nH]n3)cc2)C(=O)Nc2cc(Cl)cc(Cl)c2)CC1` (stereo not drawn) [Example 173, 4-[1-(4-tert-Butylcyclohexyl)-3-(3,5-dichlorophenyl)ureidomethyl]-N-(2H-tetrazol-5-ylmethyl)benzamide], for which the IC50 amounted to 23 nM.

As for `CC(C)(C)[C@H]1CC[C@H](N(Cc2ccc(C(=O)Nc3nn[nH]n3)cc2)C(=O)Nc2cc(Cl)cc(Cl)c2)CC1` [Example 174, 4-[1-(trans-4-tert-Butylcyclohexyl)-3-(3,5-dichlorophenyl)ureidomethyl]-N-(2H-tetrazol-5-yl)benzamide], the IC50 amounted to 11 nM.

In the case of `CC1CC(N(Cc2ccc(C(=O)NCCC(=O)O)cc2)C(=O)Nc2cc(Cl)cc(Cl)c2)CC(C)(C)C1` (stereo not drawn) [Example 176, 3-{4-[3-(3,5-Dichlorophenyl)-1-(3,3,5-trimethylcyclohexyl)ureidomethyl]benzoylamino)propionic acid], the IC50 was 641 nM.

As to `CC1CC(C)CC(N(Cc2ccc(C(=O)NCCC(=O)O)cc2)C(=O)Nc2cc(Cl)cc(Cl)c2)C1` (stereo not drawn) [Example 177, 3-{4-[3-(3,5-Dichlorophenyl)-1-(3,5-dimethylcyclohexyl)ureidomethyl]benzoylamino)propionic acid], the IC50 is 454 nM.

Regarding `O=C(O)CCNC(=O)c1ccc(CN(C(=O)Nc2ccc(OC(F)(F)F)cc2)C2CCC3(CC2)SCCS3)cc1` [Example 178, 3-{4-[1-(1,4-Dithiaspiro[4.5]dec-8-yl)-3-(4-trifluoromethoxyphenyl)ureidomethyl]benzoylamino)propionic acid], the IC50 amounted to 999 nM.

Take `O=C(O)CCNC(=O)c1ccc(CN(CCc2cccc(Cl)c2)C(=O)Nc2ccc(OC(F)(F)F)cc2)cc1` [Example 180, 3-{4-[1-[2-(3-Chlorophenyl)ethyl]-3-(4-trifluoromethoxyphenyl)ureidomethyl]benzoylamino}propionic acid]: the inhibition at 1 µM is over 50%.

With `O=C(O)CCNC(=O)c1ccc(CN(CCc2cccc(Cl)c2)C(=O)Nc2ccc(Cl)c(C(F)(F)F)c2)cc1` [Example 181, 3-{4-[1-[2-(3-Chlorophenyl)ethyl]-3-(4-chloro-3-trifluoromethylphenyl)ureidomethyl]benzoylamino}propionic acid], the inhibition at 1 µM was over 50%.

In the case of `O=C(O)CCNC(=O)c1ccc(CN(C(=O)Nc2ccc(OC(F)(F)F)cc2)c2ccc3nc(S)sc3c2)cc1` [Example 182, 3-{4-[1-(2-Mercaptobenzothiazol-6-yl)-3-(4-trifluoromethoxyphenyl)ureidomethyl]benzoylamino}propionic acid], the inhibition at 1 µM is over 50%.

Take `O=C(O)CCNC(=O)c1ccc(CN(C(=O)Nc2ccc(Cl)c(C(F)(F)F)c2)c2ccc3nc(S)sc3c2)cc1` [Example 183, 3-{4-[3-(4-Chloro-3-trifluoromethylphenyl)-1-(2-mercaptobenzothiazol-6-yl)ureidomethyl]benzoylamino}propionic acid]: the inhibition at 1 µM was over 50%.

Turning to `O=C(O)CCNC(=O)c1ccc(CN(C(=O)Nc2ccc(C(=O)O)cc2)c2ccc3c(c2)OCO3)cc1` [Example 184, 4-{3-(Benzo[1,3]dioxo-5-yl)-3-[4-(2-carboxyethylcarbamoyl)benzyl]ureido}benzoic acid], the inhibition at 1 µM is over 50%.

With `O=C(O)CCNC(=O)c1ccc(CN(C(=O)Nc2ccc(Cl)c(C(F)(F)F)c2)c2ccc(C3CCCCC3)cc2)cc1` [Example 185, 3-{4-[3-(4-Chloro-3-trifluoromethylphenyl)-1-(4-cyclohexylphenyl)ureidomethyl]benzoylamino}propionic acid], the inhibition at 1 µM is over 50%.

The term IC50 denotes the point on the concentration scale where inhibition reaches its midpoint.
